Results: patent publication US12590062B2, “PD-1/PD-L1 inhibitors” (Gilead Sciences, Inc., priority 2017, dated 2026)

Legend:
[1] = target: PD-1/PD-L1 (Homo sapiens, UniProt Q9NZQ7); test: PD-1/PD-L1 biochemical protein-protein interaction assay (ALPHA); assay type: binding; conditions: 0.3 nM His tagged PD-L1, 2.5 nM biotinylated Fc-PD-1, 60 minutes at 25° C., read-out: IC50 PD-L1-PD-1 Alpha IC50-mono PD-L1-fcP-D1
Summary of the method: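 Final concentrations 0.3 nM His-tagged PD-L1 and 2.5 nM biotinylated Fc-PD-1 (extracellular domains) were reacted with compound for 60 min at 25° C in pH 7.4 Hepes/NaCl/EDTA/Tween/BSA buffer. Binding was then detected by ALPHA beads, and IC50 values were taken from four-parameter curve fitting.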

[2] = target: T1, PD-1/PD-L1 interaction (Homo sapiens, UniProt Q9NZQ7); test: PD-1/PD-L1 NFAT reporter co-culture assay; assay type: cell-based; conditions: Jurkat PD-1 NFAT-luciferase cells co-cultured with aAPC-PD-L1 CHO cells, 6 hrs at 37° C.; read-out: EC50 NFAT Luciferase
T1 construct: expressed in transfected cells; host or cells: CHO cells (aAPC-PD-L1) co-cultured with Jurkat cells overexpressing PD-1 and an NFAT-luciferase reporter
Summary of the method: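 Jurkat cells overexpressing PD-1 with NFAT-driven luciferase were mixed with compound in RPMI 1640/2% FBS and seeded onto overnight-plated CHO aAPC-PD-L1 cells expressing surface anti-CD3 and PD-L1. Co-culture ran 6 h at 37 °C; luminescence read with ONE-Glo; EC50 from four-parameter fit.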

[3] = target: T2, PD-L1 (Homo sapiens, UniProt Q9NZQ7); test: PD-L1/PD-L1 dimerization biochemical protein-protein interaction assay (ALPHA); assay type: binding; conditions: compound-induced PD-L1 dimerization, head prints '1 nM' (0.5 nM His-tagged PD-L1 and 0.5 nM FLAG-tagged PD-L1), read-out: AC50 PDL1 Dimer Alpha 1 nM
T2 construct: determine if they can specifically dimerize the extracellular domains of PD-L1
Experimental: PD-L1/PD-L1 Dimerization Biochemical Protein-Protein Interaction Assay:
Compounds were tested in biochemical protein-protein interaction assays to determine if they can specifically dimerize the extracellular domains of PD-L1. Dimerization of the proteins (His-tagged PD-L1 and FLAG-tagged PD-L1) is measured using a bead based Amplified Luminescent Proximity Homogeneous Assay (ALPHA) platform. […] Assays are performed in 25 mM Hepes (pH 7.4), 150 mM NaCl, 3.4 mM EDTA, 0.005% Tween 20, and 0.01% BSA. Final protein concentration in the assays were 0.5 nM (His tagged PD-L) and 0.5 nM (FLAG tagged PD-L1). After an assay reaction time of 2 hours at 25° C., 20 μg/mL (final assay concentration) ALPHA assay acceptor beads (anti-His coated) were added and incubated for 60 minutes at 25° C. Binding was measured following a final 60 minute incubation with 40 μg/mL (final assay concentration) ALPHA assay donor beads (anti-FLAG coated). AC50 values were calculated from the fit of the dose-response curves to a four-parameter equation (Table 3).

T1 sequence (Q9NZQ7 19-290): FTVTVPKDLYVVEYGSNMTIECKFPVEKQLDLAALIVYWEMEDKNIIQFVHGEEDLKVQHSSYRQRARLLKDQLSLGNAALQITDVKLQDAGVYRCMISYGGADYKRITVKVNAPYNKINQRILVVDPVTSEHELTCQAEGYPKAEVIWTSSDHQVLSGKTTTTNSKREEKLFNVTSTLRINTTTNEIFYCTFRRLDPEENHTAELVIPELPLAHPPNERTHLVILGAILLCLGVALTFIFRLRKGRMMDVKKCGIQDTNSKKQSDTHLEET
T2 sequence (Q9NZQ7 19-238 limits assumed): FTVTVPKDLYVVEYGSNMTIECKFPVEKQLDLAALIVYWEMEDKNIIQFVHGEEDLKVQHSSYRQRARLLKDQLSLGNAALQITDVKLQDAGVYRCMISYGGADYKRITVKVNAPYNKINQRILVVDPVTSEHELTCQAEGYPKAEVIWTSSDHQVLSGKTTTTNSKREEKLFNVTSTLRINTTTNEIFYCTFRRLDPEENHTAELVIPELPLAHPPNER
T2 sequence (Q9NZQ7 19-238 limits assumed): as above
PD-1/PD-L1, sequence (Q9NZQ7 19-238 limits assumed): as above

Row | SMILES | IC50 [1] [nM] | EC50 [2] [nM] | AC50 [3] [nM]
1 | CC(C)(NCc1cc(Cl)c(O[C@H]2CCc3c(-c4cccc(-c5ccc(S(N)(=O)=O)cc5)c4Cl)cccc32)nc1OCc1cncc(C#N)c1)C(=O)O [Example 289, (S)-2-(((5-chloro-6-((4-(2-chloro-4′-sulfamoyl-[1,1′-biphenyl]-3-yl)-2,3-dihydro-1H-inden-1-yl)oxy)-2-((5-cyanopyridin-3-yl)methoxy)pyridin-3-yl)methyl)amino)-2-methylpropanoic acid] | 0.075 | 70 | ≥ 10000
2 | CN1CCCC1c1ccc(-c2cccc(-c3cccc4c3CC[C@@H]4Oc3nc(OCc4cncc(C#N)c4)c(CN[C@@](C)(CO)C(=O)O)cc3Cl)c2Cl)cc1 (stereo partly drawn) [Example 290, (2S)-2-(((5-chloro-6-(((1S)-4-(2-chloro-4′-(1-methylpyrrolidin-2-yl)-[1,1′-biphenyl]-3-yl)-2,3-dihydro-1H-inden-1-yl)oxy)-2-((5-cyanopyridin-3-yl)methoxy)pyridin-3-yl)methyl)amino)-3-hydroxy-2-methylpropanoic acid] | 0.068 | 311 | 25.1
3 | N#Cc1cncc(COc2nc(O[C@H]3CCc4c(-c5cccc(-c6ccc(OCCNCCO)cc6)c5Cl)cccc43)c(Cl)cc2CNC[C@@H](O)CC(=O)O)c1 [Example 291, (S)-4-(((5-chloro-6-(((S)-4-(2-chloro-4′-(2-((2-hydroxyethyl)amino)ethoxy)-[1,1′-biphenyl]-3-yl)-2,3-dihydro-1H-inden-1-yl)oxy)-2-((5-cyanopyridin-3-yl)methoxy)pyridin-3-yl)methyl)amino)-3-hydroxybutanoic acid] | 0.175 | 46 | 27.5
4 | Cc1c(COc2cc(OCc3cncc(C#N)c3)c(CN[C@@](C)(CO)C(=O)O)cc2Cl)cccc1-c1cccc(-c2ccc(CC3CCCN3)cc2)c1C (stereo partly drawn) [Example 292, (2S)-2-((5-chloro-2-((5-cyanopyridin-3-yl)methoxy)-4-((2,2′-dimethyl-4″-(pyrrolidin-2-ylmethyl)-[1,1′:3′,1″-terphenyl]-3-yl)methoxy)benzyl)amino)-3-hydroxy-2-methylpropanoic acid] | 0.509 | 615 | 230
5 | Cc1c(COc2cc(OCc3cncc(C#N)c3)c(CNC[C@@H](O)CC(=O)O)cc2Cl)cccc1-c1cccc(-c2ccc3c(CNC[C@@H](O)CC(=O)O)cccc3c2)c1C [Example 293, (S)-4-(((6-(3′-((4-((((S)-3-carboxy-2-hydroxypropyl)amino)methyl)-2-chloro-5-((5-cyanopyridin-3-yl)methoxy)phenoxy)methyl)-2,2′-dimethyl-[1,1′-biphenyl]-3-yl)naphthalen-1-yl)methyl)amino)-3-hydroxybutanoic acid] | 0.226 | 73 | 125
6 | Cc1c(COc2cc(O)c(CNCCCP(=O)(O)O)cc2Cl)cccc1-c1cccc(COc2cc(OCc3cncc(C#N)c3)c(CNCCCP(=O)(O)O)cc2Cl)c1C [Example 294, (3-((5-chloro-4-((3′-((2-chloro-5-((5-cyanopyridin-3-yl)methoxy)-4-(((3-phosphonopropyl)amino)methyl)phenoxy)methyl)-2,2′-dimethyl-[1,1′-biphenyl]-3-y)methoxy)-2-hydroxybenzyl)amino)propyl)phosphonic acid] | 9.24 | 714 | 547
7 | C[C@@](CO)(NCc1cc(Cl)c(O[C@H]2CCc3c(-c4cccc5c4CC[C@@H]5Oc4nc(OCc5cncc(C#N)c5)c(CNCCO)cc4Cl)cccc32)nc1OCc1cncc(C#N)c1)C(=O)O [Example 295] | 0.312 | 279 | 67.6
8 | Cc1c(COc2cc(OCc3cncc(C#N)c3)c(CN[C@@](C)(CO)C(=O)O)cc2Cl)cccc1-c1cccc(-c2cnc3c(Cl)cc(CN[C@@](C)(CO)C(=O)O)cc3c2)c1C [Example 296, (S)-2-(((3-(3′-((4-((((S)-2-carboxy-1-hydroxypropan-2-yl)amino)methyl)-2-chloro-5-((5-cyanopyridin-3-yl)methoxy)phenoxy)methyl)-2,2′-dimethyl-[1,1′-biphenyl]-3-yl)-8-chloroquinolin-6-yl)methyl)amino)-3-hydroxy-2-methylpropanoic acid] | 0.064 | 844 | 108

Other lines, results leading:

Row | IC50 [1] [nM] | EC50 [2] [nM] | AC50 [3] [nM] | SMILES
9 | 0.187 | 266 | 187 | Cc1c(COc2cc(OCc3cncc(C#N)c3)c(CNC[C@@H](O)CC(=O)O)cc2Cl)cccc1-c1cccc(-c2cnc3c(Cl)cc(CNC[C@@H](O)CC(=O)O)cc3c2)c1C [Example 297, (S)-4-(((3-(3′-((4-((((S)-3-carboxy-2-hydroxypropyl)amino)methyl)-2-chloro-5-((5-cyanopyridin-3-yl)methoxy)phenoxy)methyl)-2,2′-dimethyl-[1,1′-biphenyl]-3-yl)-8-chloroquinolin-6-yl)methyl)amino)-3-hydroxybutanoic acid]
10 | 0.761 | 326 | 162 | Cc1c(COc2cc(OCc3cncc(C#N)c3)c(CN[C@@](C)(CO)C(=O)O)cc2Cl)cccc1-c1cccc(-c2ccc3[nH]c([C@@H]4CCCN4)nc3c2)c1C [Example 299, (S)-2-((5-chloro-2-((5-cyanopyridin-3-yl)methoxy)-4-((2,2′-dimethyl-3′-(2-((S)-pyrrolidin-2-yl)-1H-benzo[d]imidazol-5-yl)-[1,1′-biphenyl]-3-yl)methoxy)benzyl)amino)-3-hydroxy-2-methylpropanoic acid]
11 | 0.673 | 3720 | 223 | Cc1c(COc2cc(OCc3cncc(C#N)c3)c(CNC[C@@H](O)CC(=O)O)cc2Cl)cccc1-c1cccc(-c2ccc(CCN3CCCC3)cc2)c1C [Example 300, (S)-4-((5-chloro-2-((5-cyanopyridin-3-yl)methoxy)-4-((2,2′-dimethyl-4″-(2-(pyrrolidin-1-yl)ethyl)-[1,1′:3′,1″-terphenyl]-3-yl)methoxy)benzyl)amino)-3-hydroxybutanoic acid]
12 | 0.109 | 1020 | 95.9 | Cc1c(COc2cc(OCc3cncc(C#N)c3)c(CN[C@@](C)(CO)C(=O)O)cc2Cl)cccc1-c1c(F)ccc(-c2ccc(CN(C)C)cc2)c1Cl [Example 301, (2S)-2-((5-chloro-4-((2′-chloro-4″-((dimethylamino)methyl)-6′-fluoro-2-methyl-[1,1′:3′,1″-terphenyl]-3-yl)methoxy)-2-((5-cyanopyridin-3-yl)methoxy)benzyl)amino)-3-hydroxy-2-methylpropanoic acid]
13 | 0.348 | 283 | 76.2 | Cc1c(COc2cc(OCc3cncc(C#N)c3)c(CN[C@](C)(CO)C(=O)O)cc2Cl)cccc1-c1cccc(-c2ccc(OC3CN4CCC3CC4)cc2)c1C (stereo partly drawn) [Example 302, (2R)-2-((5-chloro-2-((5-cyanopyridin-3-yl)methoxy)-4-((2,2′-dimethyl-4″-(quinuclidin-3-yloxy)-[1,1′:3′,1″-terphenyl]-3-yl)methoxy)benzyl)amino)-3-hydroxy-2-methylpropanoic acid]
14 | 0.166 | 289 | 101 | CS(=O)(=O)c1cncc(COc2nc(OCc3cccc(-c4cccc(-c5ccc(OCCNCCO)cc5)c4Cl)c3Cl)c(Cl)cc2CN2C[C@@H](O)C[C@H]2C(=O)O)c1 [Example 303, (2S,4S)-1-((5-chloro-6-((2,2′-dichloro-4″-(2-((2-hydroxyethyl)amino)ethoxy)-[1,1′:3′,1″-terphenyl]-3-yl)methoxy)-2-((5-(methylsulfonyl)pyridin-3-yl)methoxy)pyridin-3-yl)methyl)-4-hydroxypyrrolidine-2-carboxylic acid]
15 | 0.064 | 79 | 16.5 | CC(C)(NCc1cc(Cl)c(OCc2cccc(-c3cccc(-c4ccc(OCCNCCO)cc4)c3Cl)c2Cl)nc1OCc1cncc(S(C)(=O)=O)c1)C(=O)O [Example 304, 2-(((5-chloro-6-((2,2′-dichloro-4″-(2-((2-hydroxyethyl)amino)ethoxy)-[1,1′:3′,1″-terphenyl]-3-yl)methoxy)-2-((5-(methylsulfonyl)pyridin-3-yl)methoxy)pyridin-3-yl)methyl)amino)-2-methylpropanoic acid]
